“And” between values parts separate entries of the source, which are not always exact repeats. Equal values may be shown once. Inconclusive results and toxic doses are left out. Rule as the data show it: active = T/C of 150% or more; inactive = T/C below 125%.
Test system: L1210 leukemia ip in BDF1 mice, survival T/C
Experiment: NCI In Vivo Anticancer Drug Screen. Data for tumor model L1210 Leukemia (intraperitoneal) in B6D2F1 (BDF1) mice
Conditions: endpoint: mean survival time, higher = longer survival
How it was run: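 Value reflects the ratio of survival in compound-treated mice to survival in vehicle-treated controls, with both groups carrying the same transplanted tumor.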

[1] = dose: 100.0 mg/kg/injection, schedule: Q04DX002 (ip), vehicle: saline
[2] = dose: 100.0 mg/kg/injection, schedule: Q04DX003 (ip), vehicle: saline with Tween-80
[3] = dose: 200.0 mg/kg/injection, schedule: Q04DX003 (ip), vehicle: saline with Tween-80
[4] = dose: 400.0 mg/kg/injection, schedule: Q04DX003 (ip), vehicle: saline with Tween-80
[5] = dose: 100.0 mg/kg/injection, schedule: Q04DX002 (ip), vehicle: saline with Tween-80
[6] = dose: 200.0 mg/kg/injection, schedule: Q04DX002 (ip), vehicle: saline with Tween-80
[7] = dose: 100.0 mg/kg/injection, schedule: Q04DX003 (ip), vehicle: saline
[8] = dose: 200.0 mg/kg/injection, schedule: Q04DX003 (ip), vehicle: saline
[9] = dose: 400.0 mg/kg/injection, schedule: Q04DX003 (ip), vehicle: saline
[10] = dose: 100.0 mg/kg/injection, schedule: Q01DX001 (ip), vehicle: Klucel (hydroxypropylcellulose) (HPC)
[11] = dose: 200.0 mg/kg/injection, schedule: Q01DX001 (ip), vehicle: Klucel (hydroxypropylcellulose) (HPC)
[12] = dose: 400.0 mg/kg/injection, schedule: Q01DX001 (ip), vehicle: Klucel (hydroxypropylcellulose) (HPC)
[13] = dose: 100.0 mg/kg/injection, schedule: Q01DX001 (ip), vehicle: carboxymethylcellulose (CMC)
[14] = dose: 200.0 mg/kg/injection, schedule: Q01DX001 (ip), vehicle: carboxymethylcellulose (CMC)
[15] = dose: 400.0 mg/kg/injection, schedule: Q01DX001 (ip), vehicle: carboxymethylcellulose (CMC)
[16] = dose: 50.0 mg/kg/injection, schedule: Q01DX001 (ip), vehicle: saline
[17] = dose: 100.0 mg/kg/injection, schedule: Q01DX001 (ip), vehicle: saline
[18] = dose: 200.0 mg/kg/injection, schedule: Q01DX001 (ip), vehicle: saline
[19] = dose: 400.0 mg/kg/injection, schedule: Q01DX001 (ip), vehicle: saline
[20] = dose: 100.0 mg/kg/injection, schedule: Q04DX003 (ip), vehicle: Klucel (hydroxypropylcellulose) (HPC)

Measured: T/C

N=C1c2ccccc2-c2nc3ccccc3c(=O)n21
inactive: [1] 86 % of control | dose: 200.0 mg/kg/injection, schedule: Q04DX002 (ip), vehicle: saline 93 % of control | dose: 400.0 mg/kg/injection, schedule: Q04DX002 (ip), vehicle: saline 89 % of control

O=C1C=CC(=O)c2c(O)c(CO)c(CO)c(O)c21
inactive: dose: 0.78 mg/kg/injection, schedule: Q01DX009 (ip), vehicle: water 89 % of control | dose: 1.56 mg/kg/injection, schedule: Q01DX009 (ip), vehicle: water 86 % of control

CN(N=O)C(=O)NCCSc1ncnc2nc[nH]c12
inactive: dose: 6.25 mg/kg/injection, schedule: Q01DX Z (ip), vehicle: carboxymethylcellulose (CMC) 103 % of control | dose: 12.5 mg/kg/injection, schedule: Q01DX Z (ip), vehicle: carboxymethylcellulose (CMC) 95 % of control | dose: 25.0 mg/kg/injection, schedule: Q01DX Z (ip), vehicle: carboxymethylcellulose (CMC) 107 % of control | dose: 50.0 mg/kg/injection, schedule: Q01DX Z (ip), vehicle: carboxymethylcellulose (CMC) 119 % of control

COC(=O)C(C(=O)OC)=C(C(=O)OC)C(=O)OC
inactive: [2] 89 % of control | [3] 94 % of control | [4] 93 % of control

COc1cccc(NC(=S)N(CCC#N)C2CCCCC2)c1
inactive: [5] 102 % of control | [6] 97 % of control | dose: 400.0 mg/kg/injection, schedule: Q04DX002 (ip), vehicle: saline with Tween-80 97 % of control

CCCCOC(=O)c1ccc(NC(=O)C(Cl)Cl)cc1
inactive: [7] 99 % of control | [8] 89 % of control | [9] 89 % of control

COC(=O)CCCC1CC(=O)c2c(c(O)c3ccccc3c2O)C1=O (stereo unspecified)
inactive: dose: 100.0 mg/kg/injection, schedule: Q01DX005 (ip), vehicle: saline with Tween-80 92 % of control | [2] 119 % of control | dose: 200.0 mg/kg/injection, schedule: Q01DX005 (ip), vehicle: saline with Tween-80 95 % of control | [3] 105 % of control | dose: 400.0 mg/kg/injection, schedule: Q01DX005 (ip), vehicle: saline with Tween-80 97 % of control | [4] 103 % of control

Cc1cc2ccccc2oc1=O
inactive: dose: 25.0 mg/kg/injection, schedule: Q01DX009 (ip), vehicle: saline with Tween-80 101 % of control | dose: 25.0 mg/kg/injection, schedule: Q04DX003 (ip), vehicle: saline with Tween-80 98 % of control | dose: 50.0 mg/kg/injection, schedule: Q01DX009 (ip), vehicle: saline with Tween-80 114 % of control | dose: 50.0 mg/kg/injection, schedule: Q04DX003 (ip), vehicle: saline with Tween-80 93 % of control | dose: 100.0 mg/kg/injection, schedule: Q01DX009 (ip), vehicle: saline with Tween-80 107 % of control | [2] 86 % of control

CCSCC1OC(n2ncc3c(N)ncnc32)C(O)C1O (stereo unspecified)
inactive: [10] 98 % of control | [11] 93 % of control | [12] 97 % of control

SCCS
inactive: dose: 50.0 mg/kg/injection, schedule: Q04DX002 (ip), vehicle: saline with Tween-80 101 % of control | [5] 101 % of control | [6] 86 % of control

COC(=O)Cc1ccc([N+](=O)[O-])cc1
inactive: [13] 94 % of control | [14] 91 % of control | [15] 88 % of control

NC(=O)Nc1ccc(/C=C2\C=Cc3ccccc32)cc1
inactive: dose: 75.0 mg/kg/injection, schedule: Q01DX001 (ip), vehicle: saline 96 % of control | dose: 150.0 mg/kg/injection, schedule: Q01DX001 (ip), vehicle: saline 93 % of control | dose: 300.0 mg/kg/injection, schedule: Q01DX001 (ip), vehicle: saline 94 % of control

Cc1cccc(C(=O)OCc2ccccc2CN2CCCCC2C)c1 (stereo unspecified)
inactive: [10] 93 % of control | [11] 93 % of control

OB1OB(OB2OB(O)O2)O1
inactive: [16] 92 % of control | [17] 92 % of control | [18] 108 % of control | [19] 113 % of control

Cc1ccc(NC(=O)Nc2ccc(Cl)cc2)c(C)c1
inactive: [13] 101 % of control | [14] 106 % of control | [15] 98 % of control

CCOC(=O)C1(C(=O)OCC)C(C)CC(OCC)N1C(=O)c1cc2c(cc1[N+](=O)[O-])OCO2 (stereo unspecified)
inactive: dose: 25.0 mg/kg/injection, schedule: Q04DX003 (ip), vehicle: Klucel (hydroxypropylcellulose) (HPC) 92 % of control | dose: 50.0 mg/kg/injection, schedule: Q04DX003 (ip), vehicle: Klucel (hydroxypropylcellulose) (HPC) 89 % of control | [20] 94 % of control

CCCN(CCC)CP(=S)(CN(CCC)CCC)CN(CCC)CCC
inactive: [17] 92 % of control | [18] 90 % of control

CC(C)CCn1ccc(=O)[nH]c1=O
inactive: [10] 100 % of control | [11] 98 % of control | [12] 105 % of control

c1ccc(C2COC3(CCCCC3)O2)cc1 (stereo unspecified)
inactive: dose: 222.0 mg/kg/injection, schedule: Q01DX Z (ip), vehicle: methylcellulose (MC) 90 % of control | dose: 333.0 mg/kg/injection, schedule: Q01DX Z (ip), vehicle: methylcellulose (MC) 95 % of control

O=C1C=C(c2ccccc2)C(=O)C2(c3ccccc3)C=CCC(c3ccccc3)C12 (stereo unspecified)
inactive: dose: 100.0 mg/kg/injection, schedule: Q04DX002 (ip), vehicle: Klucel (hydroxypropylcellulose) (HPC) 113 % of control | dose: 200.0 mg/kg/injection, schedule: Q04DX002 (ip), vehicle: Klucel (hydroxypropylcellulose) (HPC) 113 % of control | dose: 400.0 mg/kg/injection, schedule: Q04DX002 (ip), vehicle: Klucel (hydroxypropylcellulose) (HPC) 95 % of control

CCCC(C)(O)C(=O)O (stereo unspecified)
inactive: dose: 25.0 mg/kg/injection, schedule: Q04DX002 (ip), vehicle: saline 100 % of control | dose: 50.0 mg/kg/injection, schedule: Q04DX002 (ip), vehicle: saline 103 % of control | [1] 95 % of control

Brc1ccc2c(c1)CCC2
inactive: [16] 93 % of control | [17] 106 % of control and 88 % of control | [18] 94 % of control and 95 % of control | [19] 97 % of control and 98 % of control

CC(=O)CC(=O)Oc1ccccc1OC(C)=O
inactive: dose: 50.0 mg/kg/injection, schedule: Q01DX009 (ip), vehicle: Klucel (hydroxypropylcellulose) (HPC) 103 % of control | dose: 100.0 mg/kg/injection, schedule: Q01DX009 (ip), vehicle: Klucel (hydroxypropylcellulose) (HPC) 101 % of control | [20] 100 % of control | dose: 200.0 mg/kg/injection, schedule: Q01DX009 (ip), vehicle: Klucel (hydroxypropylcellulose) (HPC) 114 % of control | dose: 200.0 mg/kg/injection, schedule: Q04DX003 (ip), vehicle: Klucel (hydroxypropylcellulose) (HPC) 102 % of control

CCC(C#N)C(=O)NC(N)=O (stereo unspecified)
inactive: [7] 97 % of control | [8] 92 % of control | [9] 91 % of control

CCC1([N+](=O)[O-])COP(=O)(N2CC2)OC1 (stereo unspecified)
inactive: [13] 106 % of control | [14] 116 % of control
